target: T1, F508del (Homo sapiens, UniProt P13569, DEL508-508); experiment: Protocol 1: membrane potential optical assay (FLIPR III, voltage sensing dye), identification of potentiator compounds; type: cell-based; settings: Table 3, compounds of Table 1
T1 construct: expressed in transfected cells
Procedure, shortened: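 Membrane potential in forskolin-activated, temperature-rescued F508del NIH 3T3 cells is followed with a voltage-sensing dye on FLIPR III. A chloride ion gradient created at the single addition step provides the driving force, after prior compound treatment.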

T1 sequence (P13569 with tags, fused parts or gaps DEL508-508): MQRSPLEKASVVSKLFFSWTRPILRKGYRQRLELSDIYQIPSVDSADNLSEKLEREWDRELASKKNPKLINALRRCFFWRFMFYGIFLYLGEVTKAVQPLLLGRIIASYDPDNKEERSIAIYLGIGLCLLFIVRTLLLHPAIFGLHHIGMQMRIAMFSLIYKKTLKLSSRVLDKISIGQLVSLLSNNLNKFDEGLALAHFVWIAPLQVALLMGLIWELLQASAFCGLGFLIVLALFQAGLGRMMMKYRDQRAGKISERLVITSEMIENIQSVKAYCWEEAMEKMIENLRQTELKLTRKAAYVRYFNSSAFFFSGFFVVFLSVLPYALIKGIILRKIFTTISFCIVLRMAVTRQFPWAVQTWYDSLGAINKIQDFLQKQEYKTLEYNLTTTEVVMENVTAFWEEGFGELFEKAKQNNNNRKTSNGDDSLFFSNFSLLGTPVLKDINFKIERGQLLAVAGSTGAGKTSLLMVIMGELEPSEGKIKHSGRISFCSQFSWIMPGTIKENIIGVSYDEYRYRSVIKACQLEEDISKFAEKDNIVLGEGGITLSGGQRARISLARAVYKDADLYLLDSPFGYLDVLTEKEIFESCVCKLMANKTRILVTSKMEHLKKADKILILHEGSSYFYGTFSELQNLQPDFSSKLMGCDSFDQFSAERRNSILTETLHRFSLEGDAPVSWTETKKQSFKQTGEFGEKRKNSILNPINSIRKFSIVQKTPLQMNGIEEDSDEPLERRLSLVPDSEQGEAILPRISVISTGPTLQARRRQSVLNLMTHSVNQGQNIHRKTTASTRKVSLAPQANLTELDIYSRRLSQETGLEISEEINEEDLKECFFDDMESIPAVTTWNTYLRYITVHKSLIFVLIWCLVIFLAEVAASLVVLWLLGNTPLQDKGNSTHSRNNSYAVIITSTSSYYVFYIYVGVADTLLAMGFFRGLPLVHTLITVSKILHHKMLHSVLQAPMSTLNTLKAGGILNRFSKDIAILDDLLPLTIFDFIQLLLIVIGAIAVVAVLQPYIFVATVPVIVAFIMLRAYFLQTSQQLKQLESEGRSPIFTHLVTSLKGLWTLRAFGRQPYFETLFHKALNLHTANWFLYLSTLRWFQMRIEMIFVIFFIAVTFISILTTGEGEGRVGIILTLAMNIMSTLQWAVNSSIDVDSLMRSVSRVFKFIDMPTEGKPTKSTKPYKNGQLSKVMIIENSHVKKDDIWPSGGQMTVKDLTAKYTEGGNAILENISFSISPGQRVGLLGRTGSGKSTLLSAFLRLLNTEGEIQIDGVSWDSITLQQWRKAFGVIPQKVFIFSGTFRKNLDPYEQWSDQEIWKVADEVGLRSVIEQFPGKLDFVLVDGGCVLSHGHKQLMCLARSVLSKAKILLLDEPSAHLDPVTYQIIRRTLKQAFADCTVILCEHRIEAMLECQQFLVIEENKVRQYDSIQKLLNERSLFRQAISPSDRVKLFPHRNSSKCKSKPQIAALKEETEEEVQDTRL

| SMILES | EC30 |
| --- | --- |
| C[C@@H]1CN(c2nc(-c3ccccc3)ccc2C(=O)NS(=O)(=O)N2CC[C@H](N)C2)C(C)(C)C1 [Compound 1725, N-[(3S)-3-aminopyrrolidin-1-yl]sulfonyl-6-phenyl-2-[(4S)-2,2,4-trimethylpyrrolidin-1-yl]pyridine-3-carboxamide] | ++ (“++” means between 3 uM and 10 uM) |
| COc1ccc(/C=C/c2cnc(N3CC(C)CC3(C)C)c(C(=O)NS(=O)(=O)c3cccc(N)n3)c2)cc1 (stereo not shown) [Compound 1726, N-[(6-amino-2-pyridyl)sulfonyl]-5-[(E)-2-(4-methoxyphenyl)vinyl]-2-(2,2,4-trimethylpyrrolidin-1-yl)pyridine-3-carboxamide] | +++ (“+++” means <3 uM) |
| CCOc1ncc(-c2ccc(C(=O)NS(=O)(=O)c3cccc(N)n3)c(N3C[C@@H](C)CC3(C)C)n2)cc1C [Compound 1727, N-[(6-amino-2-pyridyl)sulfonyl]-6-(6-ethoxy-5-methyl-3-pyridyl)-2-[(4S)-2,2,4-trimethylpyrrolidin-1-yl]pyridine-3-carboxamide] | +++ (“+++” means <3 uM) |
| CC[C@H](C)Oc1ncc(-c2ccc(C(=O)NS(=O)(=O)c3cccc(N)n3)c(N3C[C@@H](C)CC3(C)C)n2)cc1C [Compound 1728, N-[(6-amino-2-pyridyl)sulfonyl]-6-[5-methyl-6-[(1 S)-1-methylpropoxy]-3-pyridyl]-2-[(4S)-2,2,4-trimethylpyrrolidin-1-yl]pyridine-3-carboxamide] | +++ (“+++” means <3 uM) |
| CC(Oc1nc(N2C[C@@H](C)CC2(C)C)c(C(=O)NS(=O)(=O)c2cccc(N)n2)cc1F)C1CCCCC1 (stereo partly drawn) [Compound 1730, N-[(6-amino-2-pyridyl)sulfonyl]-6-(1-cyclohexylethoxy)-5-fluoro-2-[(4S)-2,2,4-trimethylpyrrolidin-1-yl]pyridine-3-carboxamide] | +++ (“+++” means <3 uM) |
| Cc1ccc(-c2ccc(C(=O)NS(=O)(=O)c3cccnc3N)c(N3C[C@@H](C)CC3(C)C)n2)c(O)c1 [Compound 1731, N-[(2-amino-3-pyridyl)sulfonyl]-6-(2-hydroxy-4-methyl-phenyl)-2-[(4S)-2,2,4-trimethylpyrrolidin-1-yl]pyridine-3-carboxamide] | +++ (“+++” means <3 uM) |
| CC1CN(c2ncccc2C(=O)NS(=O)(=O)c2cccc(N3CCN(C4CCCC4)CC3)n2)C(C)(C)C1 (stereo not shown) [Compound 1733, N—[[6-(4-cyclopentylpiperazin-1-yl)-2-pyridyl]sulfonyl]-2-(2,2,4-trimethylpyrrolidin-1-yl)pyridine-3-carboxamide] | ++ (“++” means between 3 uM and 10 uM) |
| CC1CN(c2ncccc2C(=O)NS(=O)(=O)c2cccc(OCC3CCNC3)n2)C(C)(C)C1 (stereo not shown) [Compound 1734, N—[[6-(pyrrolidin-3-ylmethoxy)-2-pyridyl]sulfonyl]-2-(2,2,4-trimethylpyrrolidin-1-yl)pyridine-3-carboxamide] | +++ (“+++” means <3 uM) |
| COc1ccccc1-c1cnc(N2CC(C)CC2(C)C)c(C(=O)NS(=O)(=O)c2cccc(N)n2)c1 (stereo not shown) [Compound 1735, N-[(6-amino-2-pyridyl)sulfonyl]-5-(2-methoxyphenyl)-2-(2,2,4-trimethylpyrrolidin-1-yl)pyridine-3-carboxamide] | +++ (“+++” means <3 uM) |
| Cc1ccc(C)c(-c2ccc(C(=O)NS(=O)(=O)N3CC[C@H](N)C3)c(N3C[C@@H](C)CC3(C)C)n2)c1 [Compound 1736, N-[(3S)-3-aminopyrrolidin-1-yl]sulfonyl-6-(2,5-dimethylphenyl)-2-[(4S)-2,2,4-trimethylpyrrolidin-1-yl]pyridine-3-carboxamide] | ++ (“++” means between 3 uM and 10 uM) |
| CC(C)COc1cc(F)cc(-c2ccc(C(=O)NS(=O)(=O)c3cccc(N)n3)c(N3C[C@H](C)CC34CCC4)n2)c1 [Compound 1737] | +++ (“+++” means <3 uM) |
| Cc1cc(-c2ccc(C(=O)NS(=O)(=O)c3cccc(N)n3)c(N3C[C@@H](C)CC3(C)C)n2)cnc1OCC(C)C [Compound 1741, N-[(6-amino-2-pyridyl)sulfonyl]-6-(6-isobutoxy-5-methyl-3-pyridyl)-2-[(4S)-2,2,4-trimethylpyrrolidin-1-yl]pyridine-3-carboxamide] | +++ (“+++” means <3 uM) |
| Cc1cn(-c2ccc(C(=O)NS(=O)(=O)c3ccc[nH]c3=O)c(N3C[C@@H](C)CC3(C)C)n2)nc1OCC(C)C [Compound 1743, 6-(3-isobutoxy-4-methyl-pyrazol-1-yl)-N-[(2-oxo-1H-pyridin-3-yl)sulfonyl]-2-[(4S)-2,2,4-trimethylpyrrolidin-1-yl]pyridine-3-carboxamide] | +++ (“+++” means <3 uM) |
| CC(C)COc1cc(F)cc(-c2ccc(C(=O)NS(=O)(=O)c3cccc(N)n3)c(N3CC4(CC4)CC3(C)C)n2)c1 [Compound 1746, N-[(6-amino-2-pyridyl)sulfonyl]-2-(5,5-dimethyl-6-azaspiro[2.4]heptan-6-yl)-6-(3-fluoro-5-isobutoxy-phenyl)pyridine-3-carboxamide] | +++ (“+++” means <3 uM) |
| CC(C)COc1cc(F)cc(-c2ccc(C(=O)NS(=O)(=O)c3ccc(O)cc3)c(N3C[C@@H](C)CC3(C)C)n2)c1 [Compound 1750, 6-(3-fluoro-5-isobutoxy-phenyl)-N-(4-hydroxyphenyl)sulfonyl-2-[(4S)-2,2,4-trimethylpyrrolidin-1-yl]pyridine-3-carboxamide] | +++ (“+++” means <3 uM) |
| CC(C)COc1cc(F)cc(-c2ccc(C(=O)NS(=O)(=O)c3cccc(N)n3)c(N3CC(C)CC34CC4)n2)c1 (stereo not shown) [Compound 1754, N-[(6-amino-2-pyridyl)sulfonyl]-6-(3-fluoro-5-isobutoxy-phenyl)-2-(5-methyl-7-azaspiro[2.4]heptan-7-yl)pyridine-3-carboxamide] | +++ (“+++” means <3 uM) |

Further lines, results first:

| EC30 | SMILES |
| --- | --- |
| +++ (“+++” means <3 uM) | C[C@@H]1CN(c2nc(-c3cccc(CO)c3)ccc2C(=O)NS(=O)(=O)c2cccnc2N)C(C)(C)C1 [Compound 1738, N-[(2-amino-3-pyridyl)sulfonyl]-6-[3-(hydroxymethyl)phenyl]-2-[(4S)-2,2,4-trimethylpyrrolidin-1-yl]pyridine-3-carboxamide] |
| +++ (“+++” means <3 uM) | CCN(CC)c1cc(-c2ccc(C(=O)NS(=O)(=O)c3cccc(N)n3)c(N3C[C@@H](C)CC3(C)C)n2)cc(C)n1 [Compound 1739, N-[(6-amino-2-pyridyl)sulfonyl]-6-[2-(diethylamino)-6-methyl-4-pyridyl]-2-[(4S)-2,2,4-trimethylpyrrolidin-1-yl]pyridine-3-carboxamide] |
| +++ (“+++” means <3 uM) | CCOCCOc1ccn(-c2ccc(C(=O)NS(=O)(=O)c3cccnc3N)c(N3C[C@@H](C)CC3(C)C)n2)n1 [Compound 1742, N-[(2-amino-3-pyridyl)sulfonyl]-6-[3-(2-ethoxyethoxy)pyrazol-1-yl]-2-[(4S)-2,2,4-trimethylpyrrolidin-1-yl]pyridine-3-carboxamide] |
| ++ (“++” means between 3 uM and 10 uM) | COc1cc(C(C)=O)ccc1Oc1cccc(S(=O)(=O)NC(=O)c2cccnc2N2CC(C)CC2(C)C)n1 (stereo not shown) [Compound 1744, N—[[6-(4-acetyl-2-methoxy-phenoxy)-2-pyridyl]sulfonyl]-2-(2,2,4-trimethylpyrrolidin-1-yl)pyridine-3-carboxamide] |
| +++ (“+++” means <3 uM) | CCOc1cc(C)cc(-c2ccc(C(=O)NS(=O)(=O)c3ccc[nH]c3=O)c(N3C[C@@H](C)CC3(C)C)n2)n1 [Compound 1745, 6-(6-ethoxy-4-methyl-2-pyridyl)-N-[(2-oxo-1H-pyridin-3-yl)sulfonyl]-2-[(4S)-2,2,4-trimethylpyrrolidin-1-yl]pyridine-3-carboxamide] |
| +++ (“+++” means <3 uM) | COc1ccc(-c2ccc(C(=O)NS(=O)(=O)c3cccnc3N)c(N3C[C@@H](C)CC3(C)C)n2)cc1C [Compound 1747, N-[(2-amino-3-pyridyl)sulfonyl]-6-(4-methoxy-3-methyl-phenyl)-2-[(4S)-2,2,4-trimethylpyrrolidin-1-yl]pyridine-3-carboxamide] |
| +++ (“+++” means <3 uM) | COc1cc(-c2ccc(C(=O)NS(=O)(=O)c3cccc(N)n3)c(N3C[C@@H](C)CC3(C)C)n2)cc(C)n1 [Compound 1748, N-[(6-amino-2-pyridyl)sulfonyl]-6-(2-methoxy-6-methyl-4-pyridyl)-2-[(4S)-2,2,4-trimethylpyrrolidin-1-yl]pyridine-3-carboxamide] |
| +++ (“+++” means <3 uM) | CC1CC(C)CN(c2cccc(S(=O)(=O)NC(=O)c3cccnc3N3CC(C)CC3(C)C)n2)C1 (stereo not shown) [Compound 1749, N—[[6-(3,5-dimethyl-1-piperidyl)-2-pyridyl]sulfonyl]-2-(2,2,4-trimethylpyrrolidin-1-yl)pyridine-3-carboxamide] |
| +++ (“+++” means <3 uM) | CC1CN(c2ncccc2C(=O)NS(=O)(=O)c2cccc(Oc3cccc4ccccc34)n2)C(C)(C)C1 (stereo not shown) [Compound 1751, N—[[6-(1-naphthyloxy)-2-pyridyl]sulfonyl]-2-(2,2,4-trimethylpyrrolidin-1-yl)pyridine-3-carboxamide] |
| ++ (“++” means between 3 uM and 10 uM) | COc1ccc(OC)c(-c2ccc(C(=O)NS(=O)(=O)c3ccc[nH]c3=O)c(N3C[C@@H](C)CC3(C)C)n2)c1 [Compound 1752, 6-(2,5-dimethoxyphenyl)-N-[(2-oxo-1H-pyridin-3-yl)sulfonyl]-2-[(4S)-2,2,4-trimethylpyrrolidin-1-yl]pyridine-3-carboxamide] |
| ++ (“++” means between 3 uM and 10 uM) | C#CCOc1cccc(S(=O)(=O)NC(=O)c2cccnc2N2CC(C)CC2(C)C)n1 (stereo not shown) [Compound 1753, N-[(6-prop-2-ynoxy-2-pyridyl)sulfonyl]-2-(2,2,4-trimethylpyrrolidin-1-yl)pyridine-3-carboxamide] |
| ++ (“++” means between 3 uM and 10 uM) | CC1CN(c2ncccc2C(=O)NS(=O)(=O)c2cccc(N3CCCC(c4ccccc4)C3)n2)C(C)(C)C1 (stereo not shown) [Compound 1755, N—[[6-(3-phenyl-1-piperidyl)-2-pyridyl]sulfonyl]-2-(2,2,4-trimethylpyrrolidin-1-yl)pyridine-3-carboxamide] |
